Source: patent US20090238808A1, “Process for the identification of novel enzyme interacting compounds” (priority 2005, published 2009)

Columns and labels:
[1] = biological target: CDKL5 (Mus musculus, UniProt Q3UTQ8); experiment: Kinobeads elution with test compound, mouse brain lysate, MS; type: binding; settings: kinase released from kinobeads by specific elution
Source text: This example illustrates competitive elution of proteins bound to kinobeads with non-modified test compounds (see particularly the fourth aspect of the invention). […] The kinobeads were contacted with mouse brain lysate under conditions that allow the binding of the proteins in the lysate to the ligands. The binding conditions were close to physiological by choosing suitable buffer conditions preserving the function of the proteins. After removing non-captured proteins through a gentle washing procedure the bound proteins were contacted with a test compound for protein elution. […] 1. […] Transfer 20 μl the 1:3 slurry into MoBiTech columns (equivalent to 5 μl of beads). 3. Place the column into an Eppendorf tube and centrifuge it for 15 seconds at 800 rpm at 4° C. Close columns with lower lid. 4. Add 10 μl elution buffer containing 1.0 mM of the test compound (concentration ranges of 0.1 to 1.0 mM are suitable). […] Close column with upper lid. 5. Incubate for 30 minutes at 4° C. in an Eppendorf incubator at 700 rpm. 6. Open column (first top, then bottom), put column back into siliconized tube ([…] Microcentrifuge Tubes, cat. no 11270, Sorenson BioScience, Inc.). To harvest the eluate centrifuge 2 minutes at 2.000 rpm in table top centrifuge at room temperature. The typical volume of the eluate is approximately 15 μl. 7. […]

[2] = biological target: T1, GSK3alpha (Homo sapiens, UniProt P49840); experiment: In-lysate competition binding with kinobeads, Jurkat lysate, Western blot; settings: Jurkat lysate preincubated with 0.025-6.0 μM compound
T1 construct: Aliqots of Jurkat lysate (10 mg protein) were incubated with different Bis VIII concentrations; endogenous in cells; host or cells: Jurkat clone E6-1 lysate
T1 sequence (P49840 whole entry): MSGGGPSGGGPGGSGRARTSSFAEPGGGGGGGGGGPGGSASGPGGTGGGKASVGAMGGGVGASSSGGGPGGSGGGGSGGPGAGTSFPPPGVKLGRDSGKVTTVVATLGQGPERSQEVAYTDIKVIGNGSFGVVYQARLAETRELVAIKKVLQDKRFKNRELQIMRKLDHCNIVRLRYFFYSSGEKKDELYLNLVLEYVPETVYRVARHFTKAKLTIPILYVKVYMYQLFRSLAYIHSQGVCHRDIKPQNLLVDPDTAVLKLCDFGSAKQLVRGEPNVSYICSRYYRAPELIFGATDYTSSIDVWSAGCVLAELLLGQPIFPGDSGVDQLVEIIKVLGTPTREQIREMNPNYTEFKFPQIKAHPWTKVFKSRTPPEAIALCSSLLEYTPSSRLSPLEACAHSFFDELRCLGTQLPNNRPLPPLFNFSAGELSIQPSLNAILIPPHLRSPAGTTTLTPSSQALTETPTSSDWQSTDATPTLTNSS
Procedure: (§1) This example illustrates competition binding in cell lysates (see particularly the third aspect of the invention). A test compound, Bisindolylmaleimide VIII (Bis VIII, a well known kinase inhibitor; Davies et al., 2000. Specificity and mechanism of action of some commonly used protein kinase inhibitors. Biochemical Journal 351 (Pt 1): 95-105) was added to a cell lysate thereby allowing the test compound to bind to the target proteins in the lysate. Then the lysate was contacted with the kinobeads affinity matrix to capture remaining free target proteins. The proteins bound to the kinobeads matrix were then eluted with detergent-containing buffer, separated on a SDS-polyacryamide gel and analyzed by immunodetection (Western blots) or mass spectrometry detection.
(§2) For Western blot analysis proteins bound to the affinity matrix were eluted from the affinity matrix and subsequently separated by SDS-Polyacrylamide gel elecrophoresis and transferred to a blotting membrane. Individual kinases were detected with specific antibodies against GSK3alpha, GSK3beta and ITK (FIG. 4A). […] For GSK3beta the signal was quantified and plotted against the Bis VIII concentration added to the cell lysate (FIG. 4B).
(§3) Aliqots of Jurkat lysate (10 mg protein) were incubated with different Bis VIII concentrations for one hour at 4° C. (0.025 μM, 0.074 μM, 0.22 μM, 0.67 μM, 2.0 μM and 6.0 μM final concentration of Bis VIII). To this end Bis VIII solutions were prepared in 100% DMSO as solvent that corresponded to 200 fold desired final Bis VIII concentration (Bis VIII from Alexis Biochemicals cat. number ALX 270-056). Five μl of these solutions were added to 1 ml of lysate resulting in the indicated final concentrations. For a control experiment 5 μl of DMSO without Bis VIII were used.
(§4) To each preincubated lysate sample 40 μl of kinobeads (see example 1) were added and incubated for one hour at 4° C. During the incubation the tubes were rotated on an end-over-end shaker (Roto Shake Genie, Scientific Industries Inc.). […]

[3] = biological target: T2, GSK3beta (Homo sapiens, UniProt P49841); experiment: as above; settings: Jurkat lysate preincubated with 0.025-6.0 μM compound
T2 construct: Aliqots of Jurkat lysate (10 mg protein) were incubated with different Bis VIII concentrations; endogenous in cells; host or cells: Jurkat clone E6-1 lysate
T2 sequence (P49841 whole entry): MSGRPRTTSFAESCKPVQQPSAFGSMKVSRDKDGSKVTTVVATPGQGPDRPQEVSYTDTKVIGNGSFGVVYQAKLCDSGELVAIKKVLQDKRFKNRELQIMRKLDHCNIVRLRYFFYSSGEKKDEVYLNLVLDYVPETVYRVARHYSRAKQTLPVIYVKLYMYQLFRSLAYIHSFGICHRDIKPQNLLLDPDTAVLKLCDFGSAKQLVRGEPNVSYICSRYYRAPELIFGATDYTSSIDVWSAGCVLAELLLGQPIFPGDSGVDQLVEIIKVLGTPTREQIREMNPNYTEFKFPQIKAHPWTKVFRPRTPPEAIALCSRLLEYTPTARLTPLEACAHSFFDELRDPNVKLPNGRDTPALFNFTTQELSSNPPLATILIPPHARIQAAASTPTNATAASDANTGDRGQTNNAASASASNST
Procedure: as §1, §2, §3, §4

[4] = biological target: T3, ITK (Homo sapiens, UniProt Q08881); experiment: as above; settings: Jurkat lysate preincubated with 0.025-6.0 μM compound
T3 construct: Aliqots of Jurkat lysate (10 mg protein) were incubated with different Bis VIII concentrations; endogenous in cells; host or cells: Jurkat clone E6-1 lysate
T3 sequence (Q08881 whole entry): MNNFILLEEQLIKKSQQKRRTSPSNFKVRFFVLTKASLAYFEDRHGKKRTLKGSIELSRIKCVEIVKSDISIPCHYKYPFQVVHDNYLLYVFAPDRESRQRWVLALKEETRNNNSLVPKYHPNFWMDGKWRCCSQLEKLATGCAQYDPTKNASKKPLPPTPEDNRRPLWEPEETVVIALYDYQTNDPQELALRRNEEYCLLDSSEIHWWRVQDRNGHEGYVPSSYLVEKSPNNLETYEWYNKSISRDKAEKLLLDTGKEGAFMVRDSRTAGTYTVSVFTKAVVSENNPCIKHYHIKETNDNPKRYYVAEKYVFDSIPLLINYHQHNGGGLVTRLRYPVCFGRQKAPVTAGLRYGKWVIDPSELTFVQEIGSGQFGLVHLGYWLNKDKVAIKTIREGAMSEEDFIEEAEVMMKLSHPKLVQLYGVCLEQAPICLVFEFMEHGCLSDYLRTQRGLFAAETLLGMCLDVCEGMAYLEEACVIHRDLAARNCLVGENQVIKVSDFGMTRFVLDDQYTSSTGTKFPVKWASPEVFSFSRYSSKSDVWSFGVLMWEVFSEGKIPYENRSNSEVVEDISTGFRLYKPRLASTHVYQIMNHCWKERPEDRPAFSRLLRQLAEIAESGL
Procedure: as §1, §2, §3, §4

Sequence of CDKL5 (Q3UTQ8 whole entry): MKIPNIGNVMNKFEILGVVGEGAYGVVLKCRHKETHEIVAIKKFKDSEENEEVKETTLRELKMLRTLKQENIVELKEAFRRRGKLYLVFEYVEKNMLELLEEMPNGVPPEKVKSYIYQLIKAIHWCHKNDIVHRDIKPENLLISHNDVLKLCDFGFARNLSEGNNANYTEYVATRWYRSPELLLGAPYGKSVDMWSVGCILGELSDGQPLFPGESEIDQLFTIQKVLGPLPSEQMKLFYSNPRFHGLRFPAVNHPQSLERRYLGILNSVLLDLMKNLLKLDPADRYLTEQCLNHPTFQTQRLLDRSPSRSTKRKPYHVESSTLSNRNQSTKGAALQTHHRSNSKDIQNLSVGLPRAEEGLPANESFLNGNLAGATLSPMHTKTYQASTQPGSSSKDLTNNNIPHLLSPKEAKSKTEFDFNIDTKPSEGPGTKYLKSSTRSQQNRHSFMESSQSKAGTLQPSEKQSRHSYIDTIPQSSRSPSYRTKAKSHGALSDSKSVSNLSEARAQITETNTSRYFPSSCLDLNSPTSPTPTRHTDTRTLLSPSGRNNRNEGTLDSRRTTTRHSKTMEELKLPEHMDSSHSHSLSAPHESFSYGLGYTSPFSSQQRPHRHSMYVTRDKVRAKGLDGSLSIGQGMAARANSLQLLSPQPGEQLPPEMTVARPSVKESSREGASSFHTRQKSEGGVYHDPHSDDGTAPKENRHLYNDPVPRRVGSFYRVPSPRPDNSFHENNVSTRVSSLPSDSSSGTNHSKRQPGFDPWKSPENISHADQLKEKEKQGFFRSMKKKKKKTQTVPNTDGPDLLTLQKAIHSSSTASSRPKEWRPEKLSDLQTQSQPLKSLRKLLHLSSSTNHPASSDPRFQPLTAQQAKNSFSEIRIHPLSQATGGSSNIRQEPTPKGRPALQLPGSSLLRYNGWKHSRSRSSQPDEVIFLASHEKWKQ

mass spectrometry score, CDKL5 [1] | number of identified peptides, CDKL5 [1] | binding of GSK3alpha to kinobeads, Western blot [2] | binding of GSK3beta to kinobeads, Western blot [3] | binding of ITK to kinobeads, Western blot [4] | SMILES
48 | 1 | – | – | – | CC(C)[C@H](CO)Nc1nc(Nc2ccc(C(=O)O)c(Cl)c2)c2ncn(C(C)C)c2n1 [Purvalanol B, reference compound]
– | – | prevented binding | prevented binding | not binding of ITK | Cn1cc(C2=C(c3cn(CCCN)c4ccccc34)C(=O)NC2=O)c2ccccc21 [Bis VIII, Bisindolylmaleimide VIII]
